Among the data in BindingDB's records for doi:10.1111/cbdd.12863 (Guangzhou Institutes of Biomedicine and Health, Chinese …, 2017) are IC50 values, retold here.

Each structure is given as a SMILES string.

Test [1] deals with T1, Discoidin domain-containing receptor 2 (Homo sapiens, UniProt Q16832).
T1 sequence (Q16832 whole entry): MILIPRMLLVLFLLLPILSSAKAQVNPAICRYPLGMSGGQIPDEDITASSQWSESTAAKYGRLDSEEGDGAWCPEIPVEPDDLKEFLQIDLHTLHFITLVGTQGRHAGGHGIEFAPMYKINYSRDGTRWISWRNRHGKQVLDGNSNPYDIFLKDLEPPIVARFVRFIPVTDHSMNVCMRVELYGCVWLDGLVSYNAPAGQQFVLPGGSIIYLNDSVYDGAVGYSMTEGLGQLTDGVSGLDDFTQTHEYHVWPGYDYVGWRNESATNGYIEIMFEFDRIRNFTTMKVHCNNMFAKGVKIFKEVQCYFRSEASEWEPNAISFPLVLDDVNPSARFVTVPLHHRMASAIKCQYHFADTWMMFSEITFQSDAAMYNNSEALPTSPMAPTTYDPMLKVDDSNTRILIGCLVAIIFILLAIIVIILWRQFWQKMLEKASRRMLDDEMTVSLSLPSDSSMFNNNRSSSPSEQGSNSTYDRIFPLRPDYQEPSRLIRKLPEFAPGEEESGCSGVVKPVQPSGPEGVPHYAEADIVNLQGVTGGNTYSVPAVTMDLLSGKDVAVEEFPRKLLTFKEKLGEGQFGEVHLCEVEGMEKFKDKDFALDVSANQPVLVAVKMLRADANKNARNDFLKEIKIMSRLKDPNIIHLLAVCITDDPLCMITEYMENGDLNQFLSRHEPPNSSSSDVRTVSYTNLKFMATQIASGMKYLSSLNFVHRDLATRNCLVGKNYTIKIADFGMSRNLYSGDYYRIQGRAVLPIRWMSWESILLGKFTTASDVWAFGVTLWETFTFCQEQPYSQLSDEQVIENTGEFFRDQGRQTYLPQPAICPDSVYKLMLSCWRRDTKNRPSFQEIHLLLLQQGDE
Kind of test: LanthaScreen Eu Kinase Activity Assay. The note with it: pH 7.5; 25 °C. On the procedure: (§1) The effects of compounds on the kinases DDR1 and DDR2 were assessed by using a LanthaScreen Eu kinase activity assay technology (Invitrogen, Carlsbad, CA, USA). […] Reaction buffer for the kinase reaction consists of 50 mm HEPES pH 7.5, 0.01% BRIJ-35, 10 mm MgCl2, and 1 mm EGTA. The concentration of fluorescein-polyGAT substrate (Invitrogen) in the assay was […] reactions were initiated with the addition of […] in the presence of serial dilutions of compounds. The reactions were allowed to proceed for 1 hour at room temperature before a 10 μL preparation of EDTA (20 mm) and Eu-labeled antibody (4 nm) in TR-FRET dilution buffer was added. The final concentration of antibody in the assay well was 2 nm, and the final concentration of EDTA was 10 mm.
Background: Time-resolved FRET reads energy transfer from a long-lived donor to a nearby acceptor.

Test [2] addresses Epithelial discoidin domain-containing receptor 1 (Homo sapiens, UniProt Q08345). Description: LanthaScreen Eu Kinase Activity Assay. To be noted: pH 7.5; 25 °C. The protocol:
as §1

Epithelial discoidin domain-containing receptor 1, sequence (Q08345 whole entry, the tested form may be a part): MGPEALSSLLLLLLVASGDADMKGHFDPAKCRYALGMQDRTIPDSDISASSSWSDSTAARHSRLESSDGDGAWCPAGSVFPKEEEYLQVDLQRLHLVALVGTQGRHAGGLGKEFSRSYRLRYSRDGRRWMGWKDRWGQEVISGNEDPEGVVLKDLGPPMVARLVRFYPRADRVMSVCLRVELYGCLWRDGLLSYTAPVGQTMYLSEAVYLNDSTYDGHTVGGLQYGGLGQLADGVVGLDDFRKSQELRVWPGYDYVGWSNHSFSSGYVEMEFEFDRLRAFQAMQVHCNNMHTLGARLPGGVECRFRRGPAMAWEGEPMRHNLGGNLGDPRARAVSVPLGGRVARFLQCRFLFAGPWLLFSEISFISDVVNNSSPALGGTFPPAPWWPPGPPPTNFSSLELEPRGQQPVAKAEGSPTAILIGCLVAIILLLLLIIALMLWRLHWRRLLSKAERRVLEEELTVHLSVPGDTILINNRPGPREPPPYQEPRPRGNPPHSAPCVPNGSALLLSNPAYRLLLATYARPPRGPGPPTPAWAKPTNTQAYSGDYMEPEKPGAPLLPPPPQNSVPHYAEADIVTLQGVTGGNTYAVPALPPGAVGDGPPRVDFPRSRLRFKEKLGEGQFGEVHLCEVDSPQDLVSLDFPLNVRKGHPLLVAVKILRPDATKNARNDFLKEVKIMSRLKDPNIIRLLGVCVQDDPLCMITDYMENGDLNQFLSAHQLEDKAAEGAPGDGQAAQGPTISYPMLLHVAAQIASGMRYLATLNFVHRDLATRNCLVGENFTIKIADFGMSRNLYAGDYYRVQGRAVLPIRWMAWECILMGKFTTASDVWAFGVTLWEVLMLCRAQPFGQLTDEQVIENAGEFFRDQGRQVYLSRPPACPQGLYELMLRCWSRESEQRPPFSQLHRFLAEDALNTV

In general, IC50 refers to the midpoint of a concentration-inhibition curve. Read a low IC50 as inhibition by little substance. Take `CCS(=O)(=O)N1CCC(Nc2cc(Nc3ncc(C(=O)Nc4c(C)cccc4Cl)s3)nc(C)n2)C1` (stereo unspecified) [N-(2-chloro-6-methylphenyl)-2-((6-((1-(ethylsulfonyl)pyrrolidin-3-yl)amino)-2-methylpyrimidin-4-yl)amino)thiazole-5-carboxamide (5j)]: the IC50 was determined as 0.156 µM in test [1] and 0.0485 µM in test [2].

For `Cc1nc(Nc2ncc(C(=O)Nc3c(C)cccc3Cl)s2)cc(C2CCN(C(=O)Oc3ccccc3)C2)n1` (stereo unspecified) [Phenyl 3-(6-((5-((2-chloro-6-methylphenyl)carbamoyl)thiazol-2-yl)amino)-2-methylpyrimidin-4-yl)pyrrolidine-1-carboxylate (5g)], the 50% inhibitory concentration (IC50) in test [1] was 0.0599 µM; in test [2], 0.00751 µM.

For `Cc1nc(Nc2ncc(C(=O)Nc3c(C)cccc3Cl)s2)cc(N2CCN(C(=O)Oc3ccccc3)CC2)n1` [Phenyl 4-(6-((5-((2-chloro-6-methylphenyl)carbamoyl)thiazol-2-yl)amino)-2-methylpyrimidin-4-yl)-piperazine-1-carboxylate (3g)], the IC50 in test [1] came out at 0.0213 µM; in test [2], 0.00714 µM.
